This data set can be described thus: refractive index (Na D-line) (dimensionless). The settings on record: 303.15 K; 101.33 kPa; Liquid; Standard Abbe refractometry.

Numbers after ± are expanded uncertainties.

The source of these data is the NIST ThermoML archive (doi:10.1016/j.jct.2015.12.019).

With `CC(C)C(=O)O` [2-methylpropanoic acid], the refractive index stood at 1.3913 ± 0.018.
On to `CCCCCCC` [heptane], for which the refractive index amounted to 1.3844 ± 0.018.
Turning to `O=S1(=O)CCCC1` [sulfolane], the refractive index is listed as 1.4815 ± 0.018.
